# Measurements taken from the OPERA property sets (Mansouri et al. 2018).
# Conditions: not given
SMILES,boiling point [°C],log10 vapour pressure (mmHg),melting point [°C],ready biodegradability,log10 Koc (L/kg),log10 Henry constant (atm·m³/mol)
C1CCCCCC1,118,1.33,-8,,,
CC(Br)(Br)CBr,190,,,,,
CCCCCCCCCCCCCCCCCCl,,-4.34,,,,
O=C(O)c1ccc2c(c1)C(=O)c1ccccc1C2=O,,,291,,,
CC(=O)Oc1ccccc1C,208,,,,,
Clc1cccc2cc3ccccc3cc12,,,83.5,,,
CCCCCCCCC[C@H](O)CC,,,25,,,
SC1=NCCCN1,,,211,,,
ClCC#CCCl,166,,,,,
CCC(C)c1cccc(C(C)CC)c1O (stereo not drawn),258,,-42,not readily biodegradable,,
CC(C)(N)c1ccccc1,196,,,,,
c1ccc2ocnc2c1,182,,31,,,
C=C1CCC1=C,64,,,,,
O=C1OC(=O)c2c(I)c(I)c(I)c(I)c21,,,328,,,
NC(=O)C(CCN1CCCCCC1)(c1ccccc1)c1ccccc1,,,142,,,
Cc1csc(C)c1C,162,,-26.2,,,
C=CC(=O)OC1CCCCC1C (stereo not drawn),210,,,,,
OCCCCC(F)(F)F,148,,,,,
O=P(O)(O)CCCl,,-7.01,74.2,,0,
CC(C)=CCO,140,,,,,
CCCCc1cccc2[nH]nnc12,,,,,2.16,

SMILES,boiling point [°C],log10 vapour pressure (mmHg),melting point [°C],ready biodegradability,log10 Koc (L/kg),log10 Henry constant (atm·m³/mol)
Cc1ccc2c(c1)CCCC2,229,,-40,,,
CCCCCCCCCCCCCN,276,,27.4,,,
Brc1ccccc1I,257,,9.5,,,
Cc1ccccc1Oc1ccccc1[N+](=O)[O-],,,39.5,,,
CCN,16.6,3.02,,readily biodegradable,,-4.91
Cc1cccc(C)c1N(C)C,196,,-36,,,
Clc1ccccc1-c1ccccc1,274,-2.86,34,,3.47,-3.13
CC1(C)C=Cc2c(ccc3c2OC2c4ccc(O)cc4OCC32)O1 (stereo not drawn),,,178,,,
CCN(CC)c1ccc(Cl)cc1,252,,45.5,,,
CCP(CC)CC,129,,-88,,,
O=[N+]([O-])OCC(CCl)O[N+](=O)[O-] (stereo not drawn),192,,,,,
C#CC#C,10.3,3.12,-36.4,,,
O=S(=O)(O)c1ccc2cc(O)ccc2c1,,,125,,,
CCOc1cc(OCC)c(C(=O)CCC(=O)O)cc1OCC,,,150,,,
C=CC(C)(C)CCC,104,,,,,
CC1=CCC2C(C)(C)CCC[C@]2(C)[C@@]12CC[C@](C)(CC(=O)O)O2 (stereo partly drawn),,,100,,,
CC(C)(SC(=O)N1CCCCC1)c1ccccc1,,-5.4,39,,,
COCC(C)N(C(=O)CCl)c1c(C)csc1C (stereo not drawn),,-3.56,,,,-7.09
CCCCC(C)(O)CC (stereo not drawn),163,,-83,,,
Clc1ccc(C(Cl)(Cl)Cl)cc1,245,,,,,
CC1=C(C)C2CCC1C2,140,,,,,

SMILES,boiling point [°C],log10 vapour pressure (mmHg),melting point [°C],ready biodegradability,log10 Koc (L/kg),log10 Henry constant (atm·m³/mol)
Oc1ccc2c3c1O[C@H]1[C@@H](O)C=C[C@H]4[C@H](C2)NCC[C@@]341,,,273,,,
O=C(O)c1c2ccccc2cc2ccccc12,,,,,2.74,
NC(=O)COC(=O)c1ccccc1,,,121,,,
CCCCC(CC)CCl (stereo not drawn),172,0.0792,,,,
O=C=Nc1cccc([N+](=O)[O-])c1,,,51,,,
CC(C)(C)c1cc(C=O)cc(C(C)(C)C)c1O,,,186,,,
O=S(=O)(O)c1ccc(-c2ccc(S(=O)(=O)O)cc2)cc1,,,72.5,,,
CNC(=O)Oc1cc(C)c(N(C)C)c(C)c1,,,85,,2.48,
Cc1c(O)ccc(O)c1C,,,224,,,
CN(C)CCCN(CCCN(C)C)CCCN(C)C,,,,not readily biodegradable,,
CCCC(=O)C(=O)O,179,,6.5,,,
CCOc1nc(F)cc2nc(S(=O)(=O)Nc3c(Cl)cccc3C(=O)OC)nn12,,,217,,,
Cc1cc(=O)n(-c2ccccc2)[nH]1,,,128,,,
c1ccsc1,84,1.9,-39.4,not readily biodegradable,,-2.64
O=c1[nH]sc2ccccc12,,,,not readily biodegradable,,
C=Cc1ccccc1Cl,189,-0.0173,-63.1,not readily biodegradable,,
CCc1cccc(C)c1N(C(=O)CCl)[C@@H](C)COC,282,,,,,
CCS(=O)CC,,,14,,,
CC(=O)OCC(=O)[C@H]1CC[C@H]2[C@@H]3CC=C4C[C@@H](O)CC[C@]4(C)[C@H]3CC[C@]12C,,,184,,,

# Same assay, conditions: fish
SMILES,log10 BCF,log10 biotransformation half-life (days)
CC(N)c1ccccc1 (stereo not drawn),0.82,
Oc1c(Cl)c(Cl)c(Cl)c(Cl)c1Cl,2.66,-0.2
Cc1cc(C)c(O)c(C)c1,0.93,-1.3
c1ccc2c(c1)ccc1nc3c(ccc4ccccc43)cc12,2.03,-0.14
Oc1c(Cl)cc(Cl)c(Cl)c1Cc1c(O)c(Cl)cc(Cl)c1Cl,2.07,
CCC(C)c1cccc(C(C)CC)c1O (stereo not drawn),2.39,-0.22
Clc1ccc2c(oc3c(Cl)c(Cl)c(Cl)c(Cl)c32)c1Cl,2.78,0.43
Clc1ccc(Oc2c(Cl)cc(Cl)cc2Cl)c(Cl)c1,,1.69
CNC(=O)Oc1cc(C)c(N(C)C)c(C)c1,1.42,
c1ccsc1,0.95,-0.82
